Values after ≈ are worked out from the molar mass of the structure shown. Read-outs that look alike come from different tables or passages of the source. Non-standard residues stand in square brackets, D forms with d. Residues, ends and D or L forms follow the SMILES beside them. *: point of attachment. Octanoyl = CCCCCCCC(=O)*
Key:
MRSA 3393 = format: cell-based, Staphylococcus aureus
Source text: (§1) Bacteria were cultivated in Luria-Bertani (LB) broth.

MRSA ATCC 43300 = format: cell-based, Staphylococcus aureus
Source text: as §1

MRSA USA 300 = format: cell-based, Staphylococcus aureus
Source text: as §1

K. pneumoniae 3026 = format: cell-based, Klebsiella pneumoniae
Source text: as §1

[1] = test system: K. pneumoniae ATCC 700603; format: cell-based, Klebsiella pneumoniae
Source text: as §1

A. baumannii 1318 = format: cell-based, Acinetobacter baumannii
Source text: as §1

A. baumannii 1337 = format: cell-based, Acinetobacter baumannii
Source text: as §1

E. coli S = format: cell-based, Escherichia coli
Source text: as §1

E. coli ATCC 25922 = format: cell-based, Escherichia coli
Source text: as §1

Row | SMILES | MIC Gram+ MRSA 3393 (MRSA 3393; 3393) | MIC Gram+ MRSA ATCC 43300 (MRSA ATCC 43300; ATCC 43300) | MIC Gram+ MRSA USA 300 (MRSA USA 300) | MIC Gram- K. p 3026 (K. pneumoniae 3026) | MIC Gram- K. p ATCC 700603 [1] | MIC Gram- A. b 1318 (A. baumannii 1318) | MIC Gram- A. b 1337 (A. baumannii 1337) | MIC Gram- E. coli S (E. coli S) | MIC Gram- E. coli ATCC 25922 (E. coli ATCC 25922) | MIC Gram+ MRSA 3393 (MRSA 3393) | MIC Gram+ MRSA ATCC 43300 (MRSA ATCC 43300)
1 | CC[C@@H](C)[C@@H](NC(=O)[C@@H](CCCNC(=N)N)NC(=O)[C@@H](CCCNC(=N)N)NC(=O)[C@@H](CC(C)C)NC(=O)[C@@H](Cc1ccccc1)NC(=O)[C@H](N)CCCNC(=N)N)C(=O)N[C@H](Cc1ccccc1)C(=O)N[C@H](Cc1ccccc1)C(=O)N[C@H](Cc1ccccc1)C(=O)N[C@H](Cc1ccccc1)C(N)=O [D-HT2] (H-[dR][dF][dL][dR][dR][dI][dF][dF][dF][dF]-NH2; N-terminus assumed) | 6.25 µM (≈ 9.05 µg/mL) | 6.25 µM (≈ 9.05 µg/mL) | 6.25 µM (≈ 9.05 µg/mL) | > 100 µM | 100 µM (≈ 145 µg/mL) | 6.25 µM (≈ 9.05 µg/mL) | 12.5 µM (≈ 18.1 µg/mL) | 25 µM (≈ 36.2 µg/mL) | 50 µM (≈ 72.4 µg/mL) |  | 
2 | CCCCCCCC(=O)N[C@@H](Cc1ccccc1)C(=O)N[C@@H](CC(C)C)C(=O)N[C@@H](CO)C(=O)N[C@@H](CCCNC(=N)N)C(=O)N[C@H](C(=O)N[C@@H](Cc1ccccc1)C(N)=O)[C@@H](C)CC [OA-SHf] (Octanoyl-FLSRIF-NH2) | > 100 µM | 50 µM (≈ 45.4 µg/mL) | > 100 µM | > 100 µM | > 100 µM | > 100 µM | > 100 µM | > 100 µM | > 100 µM |  | 
3 | CC[C@H](C)[C@H](NC(=O)[C@@H](CCCNC(=N)N)NC(=O)[C@H](CCCNC(=N)N)NC(=O)[C@H](CC(C)C)NC(=O)[C@H](Cc1ccccc1)NC(=O)[C@H](Cc1ccccc1)NC(=O)[C@H](Cc1ccccc1)NC(=O)[C@@H](N)Cc1ccccc1)C(=O)N[C@@H](Cc1ccccc1)C(N)=O [F-SHf(R^5,dR^6)] (H-FFFFLR[dR]IF-NH2; N-terminus assumed) | 3.13 µM (≈ 4.04 µg/mL) | 3.13 µM (≈ 4.04 µg/mL) | 3.13 µM (≈ 4.04 µg/mL) | > 100 µM | > 100 µM | 25 µM (≈ 32.3 µg/mL) | 25 µM (≈ 32.3 µg/mL) | 25 µM (≈ 32.3 µg/mL) | > 100 µM |  | 
4 | CC[C@H](C)[C@H](NC(=O)[C@H](CCCNC(=N)N)NC(=O)[C@H](CO)NC(=O)[C@H](CC(C)C)NC(=O)[C@H](Cc1ccccc1)NC(=O)[C@H](Cc1ccccc1)NC(=O)[C@H](Cc1ccc(O)cc1)NC(=O)[C@@H](N)Cc1ccc(O)cc1)C(=O)N[C@@H](Cc1ccccc1)C(N)=O [Y-SHf(Y^1)] (H-YYFFLSRIF-NH2; N-terminus assumed) |  |  |  | > 100 µM | > 100 µM | > 100 µM | > 100 µM | > 100 µM | > 100 µM |  | 
5 | CC[C@H](C)[C@H](NC(=O)[C@H](CCCNC(=N)N)NC(=O)[C@H](CO)NC(=O)[C@H](CC(C)C)NC(=O)[C@H](Cc1ccccc1)NC(=O)[C@@H](N)Cc1ccccc1)C(=O)N[C@@H](Cc1ccccc1)C(N)=O [SHfΔ1F] (H-FFLSRIF-NH2) | > 100 µM | > 100 µM | > 100 µM | > 100 µM | > 100 µM | > 100 µM | > 100 µM | > 100 µM | > 100 µM |  | 
6 | CC[C@H](C)[C@H](NC(=O)[C@@H](CCCNC(=N)N)NC(=O)[C@@H](CCCNC(=N)N)NC(=O)[C@H](CC(C)C)NC(=O)[C@H](Cc1ccccc1)NC(=O)[C@H](Cc1ccccc1)NC(=O)[C@H](Cc1ccccc1)NC(=O)[C@@H](N)Cc1ccccc1)C(=O)N[C@@H](Cc1ccccc1)C(N)=O [F-SHf(dR^5, 6)] (H-FFFFL[dR][dR]IF-NH2; N-terminus assumed) | 3.13 µM (≈ 4.04 µg/mL) | 3.13 µM (≈ 4.04 µg/mL) | 3.13 µM (≈ 4.04 µg/mL) | 25 µM (≈ 32.3 µg/mL) | 25 µM (≈ 32.3 µg/mL) | 12.5 µM (≈ 16.1 µg/mL) | 25 µM (≈ 32.3 µg/mL) | 6.25 µM (≈ 8.07 µg/mL) | > 100 µM |  | 
7 | CC[C@H](C)[C@H](NC(=O)[C@H](CCCNC(=N)N)NC(=O)[C@H](CCCNC(=N)N)NC(=O)[C@H](CC(C)C)NC(=O)[C@H](Cc1ccccc1)NC(=O)[C@H](Cc1ccccc1)NC(=O)[C@H](Cc1ccccc1)NC(=O)[C@@H](N)Cc1ccc(O)cc1)C(=O)N[C@@H](Cc1ccccc1)C(N)=O [Y-SHf(R^5)] (H-YFFFLRRIF-NH2; N-terminus assumed) | 3.13 µM (≈ 4.09 µg/mL) | 3.13 µM (≈ 4.09 µg/mL) | 6.25 µM (≈ 8.17 µg/mL) | > 100 µM | > 100 µM | > 100 µM | 50 µM (≈ 65.4 µg/mL) | > 100 µM | 50 µM (≈ 65.4 µg/mL) |  | 
8 | CC[C@H](C)[C@H](NC(=O)[C@H](CCCNC(=N)N)NC(=O)[C@H](CCC(=O)O)NC(=O)[C@H](CC(C)C)NC(=O)[C@H](Cc1ccccc1)NC(=O)[C@H](Cc1ccccc1)NC(=O)[C@@H](N)Cc1ccccc1)C(=O)N[C@@H](Cc1ccccc1)C(N)=O [SHf(E^5)] (H-FFFLERIF-NH2; N-terminus assumed) | > 100 µM | > 100 µM | > 100 µM | > 100 µM | > 100 µM | > 100 µM | > 100 µM | > 100 µM | > 100 µM |  | 
9 | CC[C@H](C)[C@H](NC(=O)[C@H](CCCNC(=N)N)NC(=O)[C@H](CO)NC(=O)[C@H](CC(C)C)NC(=O)[C@H](Cc1ccccc1)NC(=O)[C@H](Cc1ccccc1)NC(=O)[C@H](Cc1ccccc1)NC(=O)[C@@H](N)Cc1ccc(O)cc1)C(=O)N[C@@H](Cc1ccccc1)C(N)=O [Y-SHf] (H-YFFFLSRIF-NH2; N-terminus assumed) | 12.5 µM (≈ 15.5 µg/mL) | 12.5 µM (≈ 15.5 µg/mL) | 12.5 µM (≈ 15.5 µg/mL) | > 100 µM | > 100 µM | > 100 µM | > 100 µM | > 100 µM | > 100 µM |  | 
10 | CC[C@H](C)[C@H](NC(=O)[C@H](CCCNC(=N)N)NC(=O)[C@H](CO)NC(=O)[C@H](CC(C)C)NC(=O)[C@H](Cc1ccccc1)NC(=O)[C@H](Cc1ccccc1)NC(=O)[C@@H](N)Cc1ccc(O)cc1)C(=O)N[C@@H](Cc1ccccc1)C(N)=O [SHf(Y^1)] (H-YFFLSRIF-NH2; N-terminus assumed) |  | > 100 µM |  | > 100 µM | > 100 µM | > 100 µM | > 100 µM | > 100 µM | > 100 µM |  | 
11 | CC[C@H](C)[C@H](NC(=O)[C@H](CCCNC(=N)N)NC(=O)[C@@H](CCCNC(=N)N)NC(=O)[C@H](CC(C)C)NC(=O)[C@H](Cc1ccccc1)NC(=O)[C@H](Cc1ccccc1)NC(=O)[C@H](Cc1ccccc1)NC(=O)[C@@H](N)Cc1ccccc1)C(=O)N[C@@H](Cc1ccccc1)C(N)=O [F-SHf(dR^5)] (H-FFFFL[dR]RIF-NH2; N-terminus assumed) | 3.13 µM (≈ 4.04 µg/mL) | 3.13 µM (≈ 4.04 µg/mL) | 3.13 µM (≈ 4.04 µg/mL) | > 100 µM | > 100 µM | 25 µM (≈ 32.3 µg/mL) | 25 µM (≈ 32.3 µg/mL) | 25 µM (≈ 32.3 µg/mL) | > 100 µM |  | 
12 | CC[C@H](C)[C@H](NC(=O)[C@H](CCCNC(=N)N)NC(=O)[C@H](CO)NC(=O)[C@H](CC(C)C)NC(=O)[C@@H](N)Cc1ccccc1)C(=O)N[C@@H](Cc1ccccc1)C(N)=O [SHfΔ2F] (H-FLSRIF-NH2; N-terminus assumed) | > 100 µM | > 100 µM | > 100 µM | > 100 µM | > 100 µM | > 100 µM | > 100 µM | > 100 µM | > 100 µM |  | 
13 | CC[C@H](C)[C@H](NC(=O)[C@H](CCCNC(=N)N)NC(=O)[C@H](CCCNC(=N)N)NC(=O)[C@H](CC(C)C)NC(=O)[C@H](Cc1ccccc1)NC(=O)[C@H](Cc1ccccc1)NC(=O)[C@H](Cc1ccccc1)NC(=O)[C@H](Cc1ccccc1)NC(=O)[C@@H](N)Cc1ccccc1)C(=O)N[C@@H](Cc1ccccc1)C(N)=O [FF-SHf(R^5)] (H-FFFFFLRRIF-NH2; N-terminus assumed) |  | 1.57 µM (≈ 2.26 µg/mL) | 3.13 µM (≈ 4.5 µg/mL) | > 100 µM | > 100 µM | 50 µM (≈ 71.9 µg/mL) | > 100 µM | 100 µM (≈ 144 µg/mL) | > 100 µM | 1.57 µM (≈ 2.26 µg/mL) | 1.57 µM (≈ 2.26 µg/mL)

Source: publication PMC10657444, “Design and evaluation of tadpole-like conformational antimicrobial peptides” (Communications Biology, 2023)
